According to USRE42376E1, “Substituted 3-cyanoquinolines” (Wyeth Holdings Corporation, priority 1998, dated 2011):
Converted amounts (≈) assume the structure as drawn. Where a name gives a salt, the structure may show the parent alone. Each block holds one molecule with its values, some of them ahead of it.

Columns and labels:
MDAMB435 = test: Inhibition of cancer cell growth as measured by cell number, MDAMB435; assay type: cell-based, Human; conditions: 48 hours exposure, Sulforhodamine B
Procedure: (§1) Human tumor cell lines were plated in 96-well plates (250 μl/well, 1-6×10^4 cells/ml) in RPMI 1640 medium, containing 5% FBS (Fetal Bovine Serum). […] After 48 hours exposure to test compounds, cells were fixed with trichloroacetic acid, and stained with Sulforhodamine B. After washing with trichloroacetic acid, bound dye was solubilized in 10 mM Tris base and optical density was determined using plate reader. Under conditions of the assay the optical density is proportional to the number of cells in the well. […] The test procedure is described in details by Philip Skehan et. al, J.Natl. Canc. Inst., 82, 1107-1112 (1990). […] Information about some of the cell lines used in these test procedures is available from the American Type Tissue Collection: Cell Lines and Hybridomas, 1994 Reference Guide, 8th Edition.

SW620 = test: Inhibition of cancer cell growth as measured by cell number, SW620; assay type: cell-based, Human; conditions: 48 hours exposure, Sulforhodamine B
Procedure: as §1

A431 = test: Inhibition of cancer cell growth as measured by cell number, A431; assay type: cell-based, Human; conditions: 48 hours exposure, Sulforhodamine B
Procedure: as §1

SKBR3 = test: Inhibition of cancer cell growth as measured by cell number, SKBR3; assay type: cell-based, Human; conditions: 48 hours exposure, Sulforhodamine B
Procedure: as §1

3T3 = test: Inhibition of cell growth as measured by cell number, 3T3; assay type: cell-based; conditions: 48 hours exposure, Sulforhodamine B
Procedure: as §1

Her2/3T3 = test: Inhibition of cell growth as measured by cell number, Her2/3T3; assay type: cell-based; conditions: 48 hours exposure, Sulforhodamine B
Procedure: as §1

[1] = test system: Human Epidermoid Tumors (A431); test: In vivo inhibition of the growth of human epidermoid tumors (A431) in mice; set-up: species or system BALB/c nu/nu female mice; conditions: for S/T = # of Survivors/# of Treated: Day +28 post tumor staging
Procedure: Human epidernoid carcinoma cells A-431 (American Type Culture Collection, Rockville, Md. #CRL-155) were grown in vitro as described above. A unit of 5×10^6 cells were injected SC into mice. […] Control animals received no drug. […] The % T/C (Tumor/Control) is determined by dividing the relative tumor growth of the treated group by the relative tumor growth of the placebo group and multiplying by 100.

[2] = target: Epithelial Cell Kinase (ECK) (Homo sapiens, UniProt P29317); test: Inhibition of Epithelial Cell Kinase (ECK); assay type: biochemical
Chain of Epithelial Cell Kinase (ECK) (P29317 24-976, species assumed): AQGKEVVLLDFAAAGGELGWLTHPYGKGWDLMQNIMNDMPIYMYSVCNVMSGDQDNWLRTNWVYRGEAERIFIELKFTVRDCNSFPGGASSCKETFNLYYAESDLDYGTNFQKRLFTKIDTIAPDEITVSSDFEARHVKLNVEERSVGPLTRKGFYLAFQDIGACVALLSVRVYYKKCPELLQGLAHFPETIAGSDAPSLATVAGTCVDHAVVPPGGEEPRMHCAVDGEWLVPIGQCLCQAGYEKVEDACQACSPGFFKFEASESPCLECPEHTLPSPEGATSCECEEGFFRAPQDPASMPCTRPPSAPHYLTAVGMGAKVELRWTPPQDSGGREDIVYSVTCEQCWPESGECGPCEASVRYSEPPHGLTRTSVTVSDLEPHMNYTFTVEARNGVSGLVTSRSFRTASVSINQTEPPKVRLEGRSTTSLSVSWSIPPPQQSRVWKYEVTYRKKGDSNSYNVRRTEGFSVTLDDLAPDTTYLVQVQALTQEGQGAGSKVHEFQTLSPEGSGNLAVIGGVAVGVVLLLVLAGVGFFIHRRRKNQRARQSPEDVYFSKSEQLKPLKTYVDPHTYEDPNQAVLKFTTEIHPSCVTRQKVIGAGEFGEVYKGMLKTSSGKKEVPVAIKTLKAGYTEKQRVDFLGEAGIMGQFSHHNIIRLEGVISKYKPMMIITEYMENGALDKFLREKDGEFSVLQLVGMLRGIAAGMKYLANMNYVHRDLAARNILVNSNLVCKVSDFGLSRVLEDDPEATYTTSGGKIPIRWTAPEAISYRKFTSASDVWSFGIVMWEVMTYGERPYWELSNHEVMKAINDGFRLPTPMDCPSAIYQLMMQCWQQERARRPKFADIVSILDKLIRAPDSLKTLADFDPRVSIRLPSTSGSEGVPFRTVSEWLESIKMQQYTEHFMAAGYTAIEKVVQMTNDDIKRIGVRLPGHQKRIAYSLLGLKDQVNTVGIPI
Procedure: In this standard pharmacological test procedure, a biotinylated peptide substrate is first immobilized on neutravidin-coated microtiter plates. The test drug, the Epithelial Cell Kinase (ECK), Mg^++, sodium vanadate (a protein tyrosine phosphatase inhibitor), and an appropriate buffer to maintain pH (7.2) are then added to the immobilized substrate-containing microtiter wells. ATP is then added to initiate phosphorylation. After incubation, the assay plates are washed with a suitable buffer leaving behind phosphorylated peptide which is exposed to horse radish peroxidase (HRP)-conjugated anti-phosphotyrosine monoclonal antibody. The antibody-treated plates are washed again and the HRP activity in individual wells is quantified as a reflection of degree of substrate phosphorylation. […] Multiple entries for a given compound indication it was tested multiple times.

[3] = target: T1, recombinant human MEK 1 (MAPKK) and human ERK2 (MAPK) (Homo sapiens, UniProt P28482+Q02750); test: Mitogen Activated Protein Kinase (MAPK) coupled assay (Mek-Erk); assay type: biochemical; conditions: separate entries = repeat tests
T1 construct: The recombinant enzymes used were prepared as GST fusion proteins of human ERK 2 and human MEK 1
T1 sequence (Q02750 whole entry, the tested form may be a part): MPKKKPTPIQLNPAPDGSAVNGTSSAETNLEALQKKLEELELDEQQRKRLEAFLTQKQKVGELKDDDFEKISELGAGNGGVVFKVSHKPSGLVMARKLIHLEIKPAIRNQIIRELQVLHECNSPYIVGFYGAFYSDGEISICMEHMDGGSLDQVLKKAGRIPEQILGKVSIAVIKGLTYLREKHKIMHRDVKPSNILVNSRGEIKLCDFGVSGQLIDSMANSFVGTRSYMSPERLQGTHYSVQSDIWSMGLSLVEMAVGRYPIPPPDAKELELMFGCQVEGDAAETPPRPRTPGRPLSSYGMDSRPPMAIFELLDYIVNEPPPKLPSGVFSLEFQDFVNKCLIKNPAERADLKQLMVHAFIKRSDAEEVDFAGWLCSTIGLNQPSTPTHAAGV
T1 sequence (P28482 2-360): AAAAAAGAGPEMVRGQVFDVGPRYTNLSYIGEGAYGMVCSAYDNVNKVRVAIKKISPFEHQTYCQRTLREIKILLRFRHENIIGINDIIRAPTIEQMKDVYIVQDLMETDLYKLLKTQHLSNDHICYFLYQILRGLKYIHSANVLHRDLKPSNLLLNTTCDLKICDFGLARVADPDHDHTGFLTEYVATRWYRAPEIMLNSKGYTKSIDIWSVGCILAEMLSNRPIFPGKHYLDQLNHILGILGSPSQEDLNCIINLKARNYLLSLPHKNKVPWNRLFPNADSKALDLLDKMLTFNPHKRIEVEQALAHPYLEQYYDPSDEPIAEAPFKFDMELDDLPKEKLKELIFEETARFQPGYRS
Procedure: To evaluate inhibitors of the MAP (mitogen activated protein) kinase a two component coupled standard pharmacological test procedure, which measures phosphorylation of a serine/threonine residue in an appropriate sequence in the substrate in the presence and absence of a putative inhibitor, was used. Recombinant human MEK 1 (MAPKK) was first used to activate recombinant human ERK2 (MAPK) and the activated MAPK (ERK) was incubated with substrate (MBP peptide or MYC peptide) in the presence of ATP, Mg^+2 and radiolabeled ^33P ATP. The phosphorylated peptide was captured on a P 81 phosphocellulose filter (paper filter or embedded in microtiter plate) washed and counted by scintillation methods. […]
The reaction was run as follows in 50 mM Tris kinase buffer, pH 7.4 in a reaction volume of 50 ul. […] The filters or MTP were briefly air dried before addition of scintillant and samples were counted in the appropriate scintillation counter set up for reading ^33P isotope. […]
The raw data was captured as cpm. […] Mean cpm data was tabulated by group and % inhibition by a test compound was calculated as (corrected cpm control-corrected. cpm sample/control) X 100=% inhibition. […] The results obtained for representative compounds of this invention are listed in TABLE 2 where there may be separate entries for the same compound; this is an indication that the compound was evaluated more than one time.

- IC50 cell growth MDAMB435 (MDAMB435): 1.74 µg/mL
- IC50 cell growth SW620 (SW620): 1.24 µg/mL
- IC50 cell growth A431 (A431): 0.234 µg/mL
- IC50 cell growth SKBR3 (SKBR3): 0.148 µg/mL
SMILES: COC[C@@H]1CCCN1CC=CC(=O)Nc1cc2c(Nc3ccc(F)c(Cl)c3)c(C#N)cnc2cc1OC.Cl.Cl [Example 90, (S)-4-(2-Methoxymethyl-pyrrolidin-1-yl)-but-2-enoic Acid[4-(3-chloro-4-fluoro-phenylamino)-3-cyano-7-methoxy-quinolin-6-yl]-amide dihydrochloride]
- IC50 cell growth 3T3 (3T3): 2.1 µg/mL
- IC50 cell growth Her2/3T3 (Her2/3T3): 0.329 µg/mL

SMILES: COc1cc2ncc(C#N)c(Nc3ccc(F)c(Cl)c3)c2cc1NC(=O)C=CCN1CCC2(CC1)OCCO2 [Example 92, 4-(1,4-Dioxa-8-aza-spiro[4.5]dec-8-yl)-but-2-enoic Acid[4-(3-chloro-4-fluoro-phenylamino)-3-cyano-7-methoxy-quinolin-6-yl]-amide]
- IC50 cell growth MDAMB435 (MDAMB435): 3.32 µg/mL (≈ 6.01 µM)
- IC50 cell growth SW620 (SW620): 2.51 µg/mL (≈ 4.55 µM)
- IC50 cell growth A431 (A431): 0.283 µg/mL (≈ 0.513 µM)
- IC50 cell growth SKBR3 (SKBR3): 0.188 µg/mL (≈ 0.341 µM)
- IC50 cell growth 3T3 (3T3): 2.79 µg/mL (≈ 5.05 µM)
- IC50 cell growth Her2/3T3 (Her2/3T3): 0.35 µg/mL (≈ 0.634 µM)
- S/T = # of Survivors/# of Treated ([1]; Table 4, 10 mg/kg/dose PO days 1 through 10): 5/5
- S/T = # of Survivors/# of Treated ([1]; Table 4, 40 mg/kg/dose PO days 1 through 10): 5/5
- inhibition of tumor growth in vivo (in words) ([1]; given orally at 40 mg/Kg): effective inhibitor of tumor growth in vivo

SMILES: COCCN(C)CC=CC(=O)Nc1cc2c(Nc3ccc(F)c(Cl)c3)c(C#N)cnc2cc1OC [Example 89, 4-[(2-Methoxy-ethyl)-methyl-amino]-but-2-enoic Acid[4-(3-chloro-4-fluoro-phenylamino)-3-cyano-7-methoxy-quinolin-6-yl]-amide Dihydrochloride]
- S/T = # of Survivors/# of Treated ([1]; Table 5, 10 mg/kg/dose PO days 1 through 10): 4/5
- S/T = # of Survivors/# of Treated ([1]; Table 5, 40 mg/kg/dose PO days 1 through 10): 5/5
- inhibition of tumor growth in vivo (in words) ([1]; given orally at 40 mg/Kg and 10 mg/Kg): effective inhibitor of tumor growth in vivo

- melting point: 197 to 199 °C
SMILES: COc1cc2ncc(C#N)c(Nc3ccc(F)c(Cl)c3)c2cc1N1CC1

- IC50 [2]: > 37.3 µM
- melting point: 98 to 101 °C
SMILES: COCCN(CC#CC(=O)Nc1ccc2ncc(C#N)c(Nc3cccc(Br)c3)c2c1)CCOC [Example 75, N-[4-[(3-Bromophenyl)amino]-3-cyano-6-quinolinyl]-4-(bis-(2-methoxyethyl)amino)-2-butynamide]

- IC50 [2]: > 38.6 µM
- IC50 [3]: 80 µM
SMILES: COC[C@@H]1CCCN1CC#CC(=O)Nc1ccc2ncc(C#N)c(Nc3cccc(Br)c3)c2c1 [Example 79, 4-((2S)-2-Methoxymethylpyrrolidin-1-yl)but-2-ynoic Acid[4-(3-bromophenylamino)-3-cyanoquinolin-6-yl]amide]

- IC50 [2]: > 40.6 µM
- melting point: 95 °C (dec.)
SMILES: COCCN(C)CC#CC(=O)Nc1ccc2ncc(C#N)c(Nc3cccc(Br)c3)c2c1 [Example 76, N-[4-[(3-Bromophenyl)amino]-3-cyano-6-quinolinyl]-4-(N-methoxyethyl-N-methylamino)-2-butynamide]

- melting point: 133 to 135 °C
SMILES: C=CCN(C)CC#CC(=O)Nc1ccc2ncc(C#N)c(Nc3cccc(Br)c3)c2c1 [Example 77, N-[4-[(3-Bromophenyl)amino]-3-cyano-6-quinolinyl]-4-(N-allyl-N-methylamino)-2-butynamide]

- IC50 [2]: > 21.6 µM
SMILES: CCOc1c(Nc2ccc3ncc(C#N)c(Nc4cccc(Br)c4)c3c2)c(=O)c1=O [Example 85, 4-(3-Bromo-phenylamino)-6-(2-ethoxy-3,4-dioxo-cyclobut-1-enylamino)-quinoline-3-carbonitrile]
